Results published in ChEMBL document CHEMBL1138211, “New benzopyran-based openers of the mitochondrial ATP-sensitive potassium channel with potent anti-ischemic properties” (J Med Chem, 2006).
Activity calls are given as the source filed them. No cut-off for these calls is given here.

Legend:
Rattus norvegicus [1] = experiment: LDH release in Langendorff perfused Wistar rat heart subjected to ischemia-reperfusion cycles at 40 mg/kg, ip after 120 mins in presence of 5-hydroxydecanoic acid; type: functional; settings: route intraperitoneal
Rattus norvegicus [2] = experiment: Ischemia-injured area relative to total area in Langendorff perfused Wistar rat heart subjected to ischemia-reperfusion cycles at 40 mg/kg, ip; type: functional; settings: route intraperitoneal
Aorta [3] = experiment: Vasorelaxation activity on KCl-induced contractile tone in Wistar rat thoracic aortic ring; type: functional, tissue-based
Aorta [4] = experiment: Vasorelaxation activity on KCl-induced contractile tone in Wistar rat thoracic aortic ring at 100 uM; type: functional
Rattus norvegicus [5] = experiment: Activity in Langendorff perfused Wistar rat heart subjected to ischemia-reperfusion cycles at 40 mg/kg, ip after 30 mins; type: functional; settings: route intraperitoneal
Rattus norvegicus [6] = experiment: Activity in Langendorff perfused Wistar rat heart subjected to ischemia-reperfusion cycles at 40 mg/kg, ip after 30 mins in presence of 5-hydroxydecanoic acid; type: functional; settings: route intraperitoneal
Rattus norvegicus [7] = experiment: Activity in Langendorff perfused Wistar rat heart subjected to ischemia-reperfusion cycles at 40 mg/kg, ip after 120 mins; type: functional; settings: route intraperitoneal
Rattus norvegicus [8] = experiment: Activity in Langendorff perfused Wistar rat heart subjected to ischemia-reperfusion cycles at 40 mg/kg, ip after 120 mins in presence of 5-hydroxydecanoic acid; type: functional; settings: route intraperitoneal
Rattus norvegicus [9] = experiment: LDH release in Langendorff perfused Wistar rat heart subjected to ischemia-reperfusion cycles at 40 mg/kg, ip after 120 mins; type: functional; settings: route intraperitoneal
Rattus norvegicus [10] = experiment: Ischemia-injured area relative to total area in Langendorff perfused Wistar rat heart subjected to ischemia-reperfusion cycles at 40 mg/kg, ip in presence of 5-hydroxydecanoic acid; type: functional; settings: route intraperitoneal
Rattus norvegicus [11] = experiment: LDH release in Langendorff perfused Wistar rat heart subjected to ischemia-reperfusion cycles at 1 mg/kg, ip after 120 mins; type: functional; settings: route intraperitoneal
Rattus norvegicus [12] = experiment: LDH release in Langendorff perfused Wistar rat heart subjected to ischemia-reperfusion cycles at 1 mg/kg, ip after 120 mins in presence of 5-hydroxydecanoic acid; type: functional; settings: route intraperitoneal
Rattus norvegicus [13] = experiment: Ischemia-injured area relative to total area in Langendorff perfused Wistar rat heart subjected to ischemia-reperfusion cycles at 1 mg/kg, ip; type: functional; settings: route intraperitoneal
Rattus norvegicus [14] = experiment: Ischemia-injured area relative to total area in Langendorff perfused Wistar rat heart subjected to ischemia-reperfusion cycles at 1 mg/kg, ip in presence of 5-hydroxydecanoic acid; type: functional; settings: route intraperitoneal
Rattus norvegicus [15] = experiment: Decrease in systolic blood pressure in Wistar rat at 1 mg/kg, ip after 60 mins; type: functional, organism-based; parameters: dose 1 mg/kg; settings: Artery
Rattus norvegicus [16] = experiment: Activity in Langendorff perfused Wistar rat heart subjected to ischemia-reperfusion cycles at 1 mg/kg, ip after 30 mins; type: functional; settings: route intraperitoneal
Rattus norvegicus [17] = experiment: Activity in Langendorff perfused Wistar rat heart subjected to ischemia-reperfusion cycles at 1 mg/kg, ip after 30 mins in presence of 5-hydroxydecanoic acid; type: functional; settings: route intraperitoneal
Rattus norvegicus [18] = experiment: Activity in Langendorff perfused Wistar rat heart subjected to ischemia-reperfusion cycles at 1 mg/kg, ip after 120 mins; type: functional; settings: route intraperitoneal
Rattus norvegicus [19] = experiment: Activity in Langendorff perfused Wistar rat heart subjected to ischemia-reperfusion cycles at 1 mg/kg, ip after 120 mins in presence of 5-hydroxydecanoic acid; type: functional; settings: route intraperitoneal

## CC1=Nc2ccc(Cl)cc2S(=O)(=O)N1 [DIAZOXIDE]
Rattus norvegicus [1]
  Activity: 14.5%
Rattus norvegicus [2]
  Activity: 22%
Aorta [3]
  IC50: 19.1 µM
Aorta [4]
  Emax at 100 µM: 97%
Rattus norvegicus [5]
  Activity: 80%
Rattus norvegicus [6]
  Activity: 13%
Rattus norvegicus [7]
  Activity: 47%
Rattus norvegicus [8]
  Activity: 6%
Rattus norvegicus [9]
  LDH release: 5.7 U/g
Rattus norvegicus [10]
  Activity: 52%

## CC(=O)Nc1ccc(CN2CC3(CC(C)(C)Oc4ccc(Br)cc43)OCC2=O)cc1 (racemic)
Rattus norvegicus [2]
  Activity: 58%
Aorta [3]
  IC50: 15.1 µM
Aorta [4]
  Emax at 100 µM: 70%
Rattus norvegicus [5]
  Activity: 2%
Rattus norvegicus [7]
  Activity: 3%
Rattus norvegicus [9]
  LDH release: 12.4 U/g

## CC(=O)Nc1ccc(CN2CC3(CC(C)(C)Oc4ccccc43)OCC2=O)cc1 (racemic)
Rattus norvegicus [1]
  Activity: 13.5 U/g
Rattus norvegicus [2]
  Activity: 20%
Aorta [3]
  IC50: 25.1 µM
Aorta [4]
  Emax at 100 µM: 57%
Rattus norvegicus [5]
  Activity: 79%
Rattus norvegicus [6]
  Activity: 16%
Rattus norvegicus [7]
  Activity: 62%
Rattus norvegicus [8]
  Activity: 27%
Rattus norvegicus [9]
  LDH release: 6 U/g
Rattus norvegicus [10]
  Activity: 49%

## CC1(C)CC2(CN(Cc3ccc(NS(C)(=O)=O)cc3)C(=O)CO2)c2cc(Br)ccc2O1 (racemic)
Rattus norvegicus [1]
  Activity: 11.7 U/g
Rattus norvegicus [2]
  Activity: 13%
Aorta [3]
  IC50: 7.24 µM
Aorta [4]
  Emax at 100 µM: 87%
Rattus norvegicus [5]
  Activity: 75%
Rattus norvegicus [6]
  Activity: 52%
Rattus norvegicus [7]
  Activity: 57%
Rattus norvegicus [8]
  Activity: 39%
Rattus norvegicus [9]
  LDH release: 3 U/g
Rattus norvegicus [10]
  Activity: 47%

## CC1(C)Oc2ccc(C#N)cc2C(N2CCCC2=O)C1O (racemic) [CROMAKALIM]
Rattus norvegicus [11]
  Activity: 5.5%
Rattus norvegicus [12]
  Activity: 8.6%
Rattus norvegicus [13]
  Activity: 25%
Rattus norvegicus [14]
  Activity: 38%
Aorta [3]
  IC50: 0.0977 µM
Aorta [4]
  Emax at 100 µM: 98%
Rattus norvegicus [15]
  Activity: Active
Rattus norvegicus [16]
  Activity: 99%
Rattus norvegicus [17]
  Activity: 11%
Rattus norvegicus [18]
  Activity: 84%
Rattus norvegicus [19]
  Activity: 18%

## CC(=O)Nc1ccc(CN2CCOC3(C2)CC(C)(C)Oc2ccccc23)cc1 (racemic)
Rattus norvegicus [2]
  Activity: 50%
Aorta [3]
  IC50: 13.2 µM
Aorta [4]
  Emax at 100 µM: 77%
Rattus norvegicus [5]
  Activity: 12%
Rattus norvegicus [7]
  Activity: 17%
Rattus norvegicus [9]
  LDH release: 16 U/g

## CC(=O)Nc1ccc(CN2CCOC3(C2)CC(C)(C)Oc2ccc(Br)cc23)cc1 (racemic)
Rattus norvegicus [2]
  Activity: 61%
Aorta [3]
  IC50: 2.4 µM
Aorta [4]
  Emax at 100 µM: 99%
Rattus norvegicus [5]
  Activity: 15%
Rattus norvegicus [7]
  Activity: 26%
Rattus norvegicus [9]
  LDH release: 11.3 U/g

## CC1(C)CC2(CN(Cc3ccc(NS(C)(=O)=O)cc3)CCO2)c2cc(Br)ccc2O1 (racemic)
Rattus norvegicus [1]
  Activity: 13.4 U/g
Rattus norvegicus [2]
  Activity: 14%
Aorta [4]
  Emax at 100 µM: 98%
Rattus norvegicus [5]
  Activity: 89%
Rattus norvegicus [6]
  Activity: 17%
Rattus norvegicus [7]
  Activity: 77%
Rattus norvegicus [8]
  Activity: 33%
Rattus norvegicus [9]
  LDH release: 6.9 U/g
Rattus norvegicus [10]
  Activity: 40%
